One experiment deals with BCL-XL (Homo sapiens (Human), UniProt Q07817). The experiment in a line: Protein-protein interaction assay BCL-XL/Bad BH3 peptide (BCL-XL assay, TR-FRET). Conditions: read-out: BCL-XL Assay IC50 (median). It counts as binding. On the procedure:
Assay 2 Protein-Protein Interaction Assay: BCL-XL/Bad BH3 Peptide (BCL-XL Assay)
The dose-dependent inhibition by the compounds described in this invention of the interaction between BCL-XL and the BH3 domain of Bad (both human) was determined using a steady state binding competition assay with time-resolved fluorescence energy transfer (TR-FRET) readout. For that purpose BCL-XL (amino acids 1-212, C-terminal fused to a hexahistidine (6×His) tag (SEQ ID 3) and a synthetic Bad BH3-derived peptide of sequence Biotin-PEG2-PEG2-[…]-Nle-[…]-amide (SEQ ID 4) served as protein receptor and tracer ligand respectively. The recombinant BCL-XL protein (expressed in E. coli) was purchased from BPS Bioscience (San Diego, Calif., USA). The Bad BH3-derived peptide can be obtained from e.g. Biosyntan (Berlin, Germany).
In the assay 11 different concentrations of each compound (0.1 nM, 0.33 nM, 1.1 nM, 3.8 nM, 13 nM, 44 nM, 0.15 μM, 0.51 μM, 1.7 μM, 5.9 μM and 20 μM) were typically measured as duplicates in the same microtiter plate. For that, 100-fold concentrated DMSO solutions were prepared by serial dilutions (1:3.4) of a 2 mM stock solution in a clear, 384-well microtiter plate (Greiner Bio-One, Frickenhausen, Germany). From there, 50 nl were transferred in a dark test plate (Greiner Bio-One, Frickenhausen, Germany). The assay was initiated by addition of 2 μL of a 2,5-fold concentrated His-BCL-XL solution (usually for a 1 nM end concentration in 5 μL reaction volume) in aqueous assay buffer [50 mM Tris/HCl pH 7, 100 mM sodium chloride (NaCl), 50 mM potassium fluoride (KF), 0.005% Tween-20, 2 mM DTT, 0.1% bovine gamma globulin (BGG)] to the compounds in the assay plate. This was followed by a 10-minute incubation step at 22° C. for pre-equilibration of the putative complex between His-BCL-XL and the compounds. After that, 3 μL of a 1.67-fold concentrated solution (in assay buffer) consisting of Bad BH3-derived peptide (1 nM end concentration) and TR-FRET detection reagents [1.67 nM anti-His-Eu cryptate and 1.67 nM streptavidin-XL665 (both from Cisbio Bioassays, Codolet, France)], were added.
The mixture was incubated in the dark for one hour at 22° C. and then overnight at 4° C. The formation of BCL-XL/Bad complexes was determined by measuring the resonance energy transfer of the anti-His- Eu-cryptate antibody to the streptavidin-XL665 present in the reaction. For that purpose, the fluorescence emission at 620 nm and 665 nm after excitation at 330-350 nm was measured in a TR-FRET measuring instrument, for instance a Rubystar or a Pherastar (both from BMG Lab Technologies, Offenburg, Germany) or a Viewlux (Perkin-Elmer). The ratio of the emission at 665 nm and at 622 nm was used as indicator of the amount of BCL-XL/Bad complexes present.
The resulting data (ratio) were normalized, taking 0% inhibition as the mean value of control measurements (usually 32 data points) where all reagents were included. In this case 50 nl DMSO were used instead of compounds. […] IC50 values were determined by regression analysis based on a 4 parameter equation (minimum, maximum, IC50, Hill; Y=Max+(Min−Max)/(1+(X/IC50)^Hill) using the Screener Software (Genedata).

The next experiment deals with HMC-1-8 cells. In words: Antiproliferation assay HMC-1-8 (Assay 7). It is filed as cell-based. Summed up:
(§1)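 Cells are plated alongside a time-zero reference plate and held overnight at 37 °C. Treated plates are incubated 72 h, then ATP-based luminescence (CellTiter-Glo) is read. IC50 uses day 0 as baseline and DMSO as untreated control.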

In the next experiment the test system is SUDHL5 cells. The experiment in a line: Antiproliferation assay SUDHL5 (Assay 7). It counts as cell-based. Summed up: as §1
Setting [1] is: 72 h, CellTiter-Glo, read-out: Antiproli HMC-1-8 IC50 median.
[2] abbreviates: read-out: Antiproli HMC-1-8 IC50 median; 72 h, CellTiter-Glo.
Setting [3] is: 72 h, CellTiter-Glo; read-out: Antiproli SUDHL5 IC50 (median).
Where [4] appears, read: 72 h, CellTiter-Glo; read-out: Antiproli HMC-1-8 IC50 median.
Where [5] appears, read: read-out: Antiproli SUDHL5 IC50 (median); 72 h, CellTiter-Glo.
Setting [6] is: 72 h, read-out: Antiproli HMC-1-8 IC50 median, 72 h, CellTiter-Glo.

Results on twelve compounds are retold here after patent US11440923B2, “Substituted macrocyclic indole derivatives” (Bayer Aktiengesellschaft, priority 2017, dated 2022).

Where a name gives a salt, the structure may show the parent alone. Read-outs that look alike come from different tables or passages of the source.

Chain of BCL-XL (Q07817 1-212): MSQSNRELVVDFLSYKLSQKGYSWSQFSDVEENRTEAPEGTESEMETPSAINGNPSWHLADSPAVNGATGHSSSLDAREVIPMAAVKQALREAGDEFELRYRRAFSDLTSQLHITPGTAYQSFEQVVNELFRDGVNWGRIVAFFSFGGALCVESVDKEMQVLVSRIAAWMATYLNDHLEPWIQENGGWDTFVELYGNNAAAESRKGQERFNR

Regarding `CCc1c2c(nn1C)C(C1CC1)OCCCCn1c(C(=O)O)c(CCCOc3cccc4cc(F)ccc34)c3ccc(Cl)c-2c31` (racemic) [Example 38, (rac)-4-chloro-(15-rac)-cyclopropyl-3-ethyl-7-{3-[(6-fluoronaphthalen-1-yl)oxy]propyl}-2-methyl-2,10,11,12,13,15-hexahydropyrazolo[4′,3′:9,10][1,6]oxazacycloundecino[8,7,6-hi]indole-8-carboxylic Acid], the 50% inhibitory concentration (IC50) at BCL-XL is above 20000 nM; in the experiment with HMC-1-8 cells (setting [1]), 20300 nM.

Consider `CCc1c2c(nn1C)C(CCN1CCN(C)CC1)OCCCCn1c(C(=O)O)c(CCCOc3cccc4cc(F)ccc34)c3ccc(Cl)c-2c31` (racemic) [Example 68, 4-chloro-3-ethyl-7-{3-[(6-fluoronaphthalen-1-yl)oxy]propyl}-2-methyl-(15-rac)-[2-(4-methylpiperazin-1-yl)ethyl]-2,10,11,12,13,15-hexahydropyrazolo[4′,3′:9,10][1,6]oxazacycloundecino[8,7,6-hi]indole-8-carboxylic Acid—N-ethylethanamine Salt (Mixture 1 of Stereoisomers)], for which the IC50 was above 20000 nM at BCL-XL and 2620 nM in the experiment on HMC-1-8 cells (setting [2]).

As for `CCc1c2c(nn1C)C(CCN1CCN(C)CC1)OCCCCn1c(C(=O)O)c(CCCOc3cccc4cc(F)ccc34)c3ccc(Cl)c-2c31` (racemic) [Example 71, (rac)-4-chloro-3-ethyl-7-{3-[(6-fluoronaphthalen-1-yl)oxy]propyl}-2-methyl-(15-rac)-[2-(4-methylpiperazin-1-yl)ethyl]-2,10,11,12,13,15-hexahydropyrazolo[4′,3′:9,10][1,6]oxazacycloundecino[8,7,6-hi]indole-8-carboxylic Acid—N-ethylethanamine Salt (Mixture 2 Od Stereoisomers)], the IC50 was above 20000 nM at BCL-XL and 1370 nM in the experiment with HMC-1-8 cells (setting [2]).

In the case of `CCc1c2c(nn1C)C1CCCCN1CCCCn1c(C(=O)O)c(CCCOc3cccc4ccccc34)c3ccc(Cl)c-2c31` (racemic) [Example 102, (rac)-18-chloro-1-ethyl-2-methyl-15-[3-(1-naphthyloxy)propyl]-2,3b,4,5,6,7,9,10,11,12-decahydropyrazolo[3′,4′:8,9]pyrido[1′,2′:6,7][1,6]diazacycloundecino[10,11,1-hi]indole-14-carboxylic Acid], the IC50 in the experiment on SUDHL5 cells (Homo sapiens, SU-DHL-5, 72 h, 72 h, CellTiter-Glo; read-out: Antiproli SUDHL5 IC50 (median)) was determined as 1400 nM; in the experiment with HMC-1-8 cells (setting [1]), 7470 nM.

On to `CCc1c2c(nn1C)C(CCN1CC(F)(F)C1)OCCCCn1c(C(=O)O)c(CCCOc3cccc4cc(F)ccc34)c3ccc(Cl)c-2c31` (single isomer, unassigned; (+)) [Example 78, (+)-4-chloro-15-[2-(3,3-difluoroazetidin-1-yl)ethyl]-3-ethyl-7-{3-[(6-fluoronaphthalen-1-yl)oxy]propyl}-2-methyl-2,10,11,12,13,15-hexahydropyrazolo[4′,3′:9,10][1,6]oxazacycloundecino[8,7,6-hi]indole-8-carboxylic Acid—N-ethylethanamine Salt], for which the IC50 in the experiment with SUDHL5 cells (setting [3]) worked out at 16 nM; in the experiment on HMC-1-8 cells (setting [4]), 563 nM.

In the case of `CCc1c2c(nn1C)C1CCCN1CCCCn1c(C(=O)O)c(CCCOc3cccc4cc(F)ccc34)c3ccc(Cl)c-2c31` (single isomer, unassigned; (+)) [Example 105, (+)-17-chloro-1-ethyl-14-{3-[(6-fluoronaphthalen-1-yl)oxy]propyl}-2-methyl-3b,4,5,6,8,9,10,11-octahydro-2H-pyrazolo[3′,4′:8,9]pyrrolo[1′,2′:6,7][1,6]diazacycloundecino[10,11,1-hi]indole-13-carboxylic Acid], the results for the IC50 with SUDHL5 cells (setting [3]) and with HMC-1-8 cells (setting [4]) were 340 nM and 2660 nM, respectively.

With `CCc1c2c(nn1C)C(CCN1CCOCC1)OCCCCn1c(C(=O)O)c(CCCOc3cccc4ccccc34)c3ccc(F)c-2c31` (single isomer, unassigned; enantiomer 1) [Example 11, 3-ethyl-4-fluoro-2-methyl-15-[2-(morpholin-4-yl)ethyl]-7-{3-[(naphthalen-1-yl)oxy]propyl}-2,10,11,12,13,15-hexahydropyrazolo[4′,3′:9,10][1,6]oxazacycloundecino[8,7,6-hi]indole-8-carboxylic Acid—N-ethylethanamine Salt (Enantiomer 1)], the IC50 in the experiment on SUDHL5 cells (setting [5]) is 75 nM; in the experiment on HMC-1-8 cells (setting [6]), 1030 nM.

Regarding `Cc1c2c(nn1C)C(CCN1CCOCC1)OCCCCn1c(C(=O)O)c(CCCOc3cccc4cc(F)ccc34)c3ccc(Cl)c-2c31` (single isomer, unassigned; enantiomer 1) [Example 17, 4-chloro-7-{3-[(6-fluoronaphthalen-1-yl)oxy]propyl}-2,3-dimethyl-15-[2-(morpholin-4-yl)ethyl]-2,10,11,12,13,15-hexahydropyrazolo[4′,3′:9,10][1,6]oxazacycloundecino[8,7,6-hi]indole-8-carboxylic Acid—N-ethylethanamine (Enantiomer 1)], the IC50 at BCL-XL is above 20000 nM; in the experiment on HMC-1-8 cells (setting [6]), 201 nM.

As for `CCC1OCCCCn2c(C(=O)O)c(CCCOc3cccc4ccccc34)c3ccc(Cl)c(c32)-c2c1nn(C)c2C` (single isomer, unassigned; enantiomer 1) [Example 29, (+)-4-chloro-15-ethyl-2,3-dimethyl-7-{3-[(naphthalen-1-yl)oxy]propyl}-2,10,11,12,13,15-hexahydropyrazolo[4′,3′:9,10][1,6]oxazacycloundecino[8,7,6-hi]indole-8-carboxylic Acid—N-ethylethanamine Salt (Enantiomer 1)], the IC50 was determined as 14200 nM at BCL-XL and 23200 nM with HMC-1-8 cells (setting [6]).

Regarding `CCc1c2c(nn1C)C(CCC1CCOCC1)OCCCCn1c(C(=O)O)c(CCCOc3cccc4cc(F)ccc34)c3ccc(Cl)c-2c31` (single isomer, unassigned; enantiomer 1) [Example 61, 4-chloro-3-ethyl-7-{3-[(6-fluoronaphthalen-1-yl)oxy]propyl}-2-methyl-15-[2-(oxan-4-yl)ethyl]-2,10,11,12,13,15-hexahydropyrazolo[4′,3′:9,10][1,6]oxazacycloundecino[8,7,6-hi]indole-8-carboxylic Acid (Enantiomer 1)], the IC50 was determined as 24 nM in the experiment on SUDHL5 cells (setting [3]) and 186 nM in the experiment on HMC-1-8 cells (setting [4]).

Turning to `CCc1c2c(nn1C)C(CCC1CCOCC1)OCCCCn1c(C(=O)O)c(CCCOc3cccc4cc(F)ccc34)c3ccc(Cl)c-2c31` (single isomer, unassigned; enantiomer 1) [Example 63, (+)-4-chloro-3-ethyl-7-{3-[(6-fluoronaphthalen-1-yl)oxy]propyl}-2-methyl-15-[2-(oxan-4-yl)ethyl]-2,10,11,12,13,15-hexahydropyrazolo[4′,3′:9,10][1,6]oxazacycloundecino[8,7,6-hi]indole-8-carboxylic Acid—N-ethylethanamine Salt (Enantiomer 1)], the results for the IC50 in the experiment on SUDHL5 cells (setting [5]) and in the experiment with HMC-1-8 cells (setting [2]) were 42 nM and 351 nM, respectively.

Consider `CCc1c2c(nn1C)C(CCC(C)(C)O)OCCCCn1c(C(=O)O)c(CCCOc3cccc4cc(F)ccc34)c3ccc(Cl)c-2c31` (single isomer, unassigned; enantiomer 1) [Example 75, (+)-4-chloro-3-ethyl-7-{3-[(6-fluoronaphthalen-1-yl)oxy]propyl}-15-(3-hydroxy-3-methylbutyl)-2-methyl-2,10,11,12,13,15-hexahydropyrazolo[4′,3′:9,10][1,6]oxazacycloundecino[8,7,6-hi]indole-8-carboxylic Acid—N-ethylethanamine Salt (Enantiomer 1)], for which the IC50 in the experiment with SUDHL5 cells (setting [3]) stood at 11 nM; in the experiment with HMC-1-8 cells (setting [4]), 159 nM.
